Source: patent US20100098691A1, “COMBINATION OF BENZIMIDAZOLE ANTI-CANCER AGENT AND A SECOND ANTI-CANCER AGENT” (S'BIO PTE LTD, priority 2001, published 2010)

How the values were obtained:
H460 (lung) = test: Human xenograft model, tumor growth inhibition; format: in vivo, female athymic nude mice
Experimental: To assess in vivo antitumor activity in human xenograft models, female athymic nude mice, 12 to 14 weeks of age, were implanted subcutaneously in the flank with human cancer cells. When the tumors reached approximately 100 mm^3 in size, the mice were pair-matched into various treatment groups. For oral administration, compounds were dissolved in a mixture of 0.5% methylcellulose and 0.1% Tween 80 and administered by gavage to the tumor-bearing mice. For i.v.andi.p..administration, compounds were dissolved in 0.9% NaCl and for the i.v. administration, the compound was administered via the tail vein.
Percent tumor growth inhibition (% TGI) was calculated as
% TGI=(Cday a−Tday a)/(Cday a−Cday 1)×100
Where C is the median tumor volume of the control group, T is the median tumor volume of the treatment group, and day a is the day of assessment.

HCT 116 (colon) = test: Human xenograft model, tumor growth inhibition; format: in vivo, female athymic nude mice; conditions: vehicle (Tw/MC) po qd × 14 + 5FU 50 mg/kg iv D1, 8, 15
Experimental: The TGI assessment, the treatment-induced decreases in tumor volume on day 21 of various treatment groups were compared to controls. Percent tumor growth inhibition (% TGI) was calculated as

N.N.O=C([O-])C1(C(=O)[O-])CCC1.[Pt+2] [carboplatin, Carboplatin]
% TGI at Day 15 (H460 (lung); carboplatin 30 mg/kg ip D1, 8): 29%

Nc1ccn([C@@H]2O[C@H](CO)[C@@H](O)C2(F)F)c(=O)n1 [gemcitabine, Gemcitabine]
% TGI at Day 15 (H460 (lung); gemcitabine 80 mg/kg ip D1, 5, 9, 13 + vehicle po qd × 14 d): 36%

CCCCc1nc2cc(/C=C/C(=O)NO)ccc2n1CCN(CC)CC [Compound A8, 3-[2-Butyl-1-(2-diethylamino-ethyl)-1H-benzimidazol-5-yl]-N-hydroxy-acrylamide]
% TGI at Day 15 (H460 (lung); A8 50 mg/kg po qd × 14 d): 33% | % TGI at Day 15 (H460 (lung); A8 75 mg/kg po D1-3, D8-10): 14%

O=c1[nH]cc(F)c(=O)[nH]1 [Compound 5FU, Fluorouracil]
% TGI at Day 15 (HCT 116 (colon)): 34%
